How the values were obtained:
IKKε = biological target: T1, IKKε (Homo sapiens, UniProt Q14164); assay: ADP-Glo Kinase Assay, inhibition activity on IKKε; format: biochemical
T1 construct: purchased Promega and/or Invitrogen V4158; PR8031B; V3991 (not assigned to the two kinases)
T1 sequence (Q14164 1-716): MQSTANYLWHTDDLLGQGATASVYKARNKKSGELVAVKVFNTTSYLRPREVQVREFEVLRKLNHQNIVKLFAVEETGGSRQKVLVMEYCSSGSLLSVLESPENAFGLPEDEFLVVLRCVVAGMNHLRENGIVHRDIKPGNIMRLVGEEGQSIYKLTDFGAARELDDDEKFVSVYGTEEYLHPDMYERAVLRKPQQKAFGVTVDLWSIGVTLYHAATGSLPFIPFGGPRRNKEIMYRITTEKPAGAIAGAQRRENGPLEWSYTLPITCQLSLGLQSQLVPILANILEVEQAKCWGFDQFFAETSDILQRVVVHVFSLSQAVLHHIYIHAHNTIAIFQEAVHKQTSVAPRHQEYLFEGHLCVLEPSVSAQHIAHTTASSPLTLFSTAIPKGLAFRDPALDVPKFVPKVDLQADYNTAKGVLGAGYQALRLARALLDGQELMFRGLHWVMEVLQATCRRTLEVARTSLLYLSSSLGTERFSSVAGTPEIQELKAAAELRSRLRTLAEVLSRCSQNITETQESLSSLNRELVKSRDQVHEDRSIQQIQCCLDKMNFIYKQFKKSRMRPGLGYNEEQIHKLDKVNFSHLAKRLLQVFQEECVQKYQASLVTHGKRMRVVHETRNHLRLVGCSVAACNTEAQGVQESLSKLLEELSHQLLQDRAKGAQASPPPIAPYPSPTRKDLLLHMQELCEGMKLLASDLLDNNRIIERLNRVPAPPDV
Summary of the method: (§1)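 In 40 mM Tris pH 7.5 with 20 mM MgCl2 and 0.1 mg/mL BSA, each enzyme (IKKε or TBK1 kinase system) was run according to the manufacturer's protocol. ADP formed was detected by ADP-Glo luminescence.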

TBK1 = biological target: T2, TBK1 (Homo sapiens, UniProt Q9UHD2); assay: ADP-Glo Kinase Assay, inhibition activity on TBK1; format: biochemical
T2 construct: purchased Promega (Invitrogen is also named in the same bracket) V4158; PR8031B; V3991 (not assigned to the two kinases)
T2 sequence (Q9UHD2 1-729): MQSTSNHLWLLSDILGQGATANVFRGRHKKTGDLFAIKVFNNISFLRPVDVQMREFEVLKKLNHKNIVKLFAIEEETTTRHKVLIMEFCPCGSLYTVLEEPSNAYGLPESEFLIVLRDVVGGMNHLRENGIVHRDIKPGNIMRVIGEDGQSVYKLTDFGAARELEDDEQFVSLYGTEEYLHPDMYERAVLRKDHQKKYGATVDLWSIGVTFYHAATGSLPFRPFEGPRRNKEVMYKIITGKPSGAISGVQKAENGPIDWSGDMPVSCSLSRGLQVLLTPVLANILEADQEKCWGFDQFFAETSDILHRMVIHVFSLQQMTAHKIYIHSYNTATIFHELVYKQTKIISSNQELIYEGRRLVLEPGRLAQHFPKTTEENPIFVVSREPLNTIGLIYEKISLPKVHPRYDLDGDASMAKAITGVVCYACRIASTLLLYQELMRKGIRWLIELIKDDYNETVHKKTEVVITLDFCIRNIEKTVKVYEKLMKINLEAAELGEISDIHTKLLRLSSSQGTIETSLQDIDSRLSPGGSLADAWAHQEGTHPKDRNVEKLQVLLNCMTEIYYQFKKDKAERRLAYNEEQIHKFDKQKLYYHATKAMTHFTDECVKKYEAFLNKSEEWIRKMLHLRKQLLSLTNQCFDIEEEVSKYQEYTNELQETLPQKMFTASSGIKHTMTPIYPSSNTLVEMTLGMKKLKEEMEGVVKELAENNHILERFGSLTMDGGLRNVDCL
Summary of the method: as §1

IC50 (IKKε) [µM]	IC50 (TBK1) [µM]	Structure (SMILES)
> 10	> 10	COc1ccc(-c2cnc3[nH]cc(C4CCN(C(=O)NC(C)C)CC4)c3c2)cc1OC [Example 235, 4-(5-(3,4-dimethoxyphenyl)-1H-pyrrolo[2,3-b]pyridin-3-yl)-N-isopropylpiperidine-1-carboxamide]
> 10	> 10	COc1ccc(-c2cnc3[nH]cc(C4=CCN(C(=O)NC(C)C)C4)c3c2)cc1OC [Example 237, 3-(5-(3,4-dimethoxyphenyl)-1H-pyrrolo[2,3-b]pyridin-3-yl)-N-isopropyl-2,5-dihydro-1H-pyrrol-1-carboxamide]
6.05	6.23	COc1ccc(-c2cnc3[nH]cc(C4CCN(C(=O)NC(C)C)C4)c3c2)cc1OC (centres unmarked) [Example 238, 3-(5-(3,4-dimethoxyphenyl)-1H-pyrrolo[2,3-b]pyridin-3-yl)-N-isopropylpyrrolidine-1-carboxamide]
0.84	0.17	O=C(c1cccs1)N1CC=C(c2c[nH]c3ncc(Nc4ccc(CN5CCOCC5)cc4)cc23)CC1 [Example 250, (4-(5-(4-(morpholinomethyl)phenylamino)-1H-pyrrolo[2,3-b]pyridin-3-yl)-5,6-dihydropyridin-1(2H)-yl)(thiophen-2-yl)methanone]
